pIC50: −log10 of the molar value.
Columns and labels:
rat P2X7 = rat P2X7 (Rattus norvegicus (Rat), UniProt Q64663); assay: Ca2+ flux (FLIPR) in 1321N1 cells expressing recombinant rat P2X7 channel; assay type: cell-based; conditions: 250 μM BzATP, Calcium-4 dye
Description: 1321N1 cells expressing the recombinant human, rat or mouse P2X7 channel was cultured in HyQ DME/(HyClone/Dulbecco's Modified Eagle Medium) high glucose supplemented with 10% Fetal Bovine Serum (FBS) and appropriate selection marker. Cells were seeded at a density of 25000 cells/well (96-well clear bottom black walled plates) in 100 μl volume/well. On the day of the experiment, cell plates were washed with assay buffer, containing (in mM): 130 NaCl, 2 KCl, 1 CaCl2, 1 MgCl2, 10 HEPES, 5 glucose; pH 7.40 and 300 mOs. After the wash, cells were loaded with the Calcium-4 dye (Molecular Device) and incubated in the dark for 60 minutes. Test compounds were prepared at 250× the test concentration in neat DMSO. Intermediate 96-well compound plates were prepared by transferring 1.2 μL of the compound into 300 μL of assay buffer. A further 3× dilution occurred when transferring 50 μL/well of the compound plate to 100 μL/well in the cell plate. Cells were incubated with test compounds and dye for 30 minutes. […] The fluorescence change was measured 180 seconds after adding the agonist.

P2X7 = P2X7 (Homo sapiens (Human), UniProt Q99572); assay: P2X7 antagonism in human PBMCs (IL-1β release, ELISA); assay type: cell-based; conditions: test compound 10 μM, IL-1β release in human PBMCs, LPS 30 ng/ml + Bz-ATP 0.5 mM, read-out: PBMC 10 μM (% control)
Description: Human blood was collected using a blood donor program. […] Cells were incubated for an additional 1.5 hours. […] In Table 2, when the data cell has been left blank, it is intended to mean that the compound was not tested in that assay.

Chain of P2X7 (Q99572 whole entry): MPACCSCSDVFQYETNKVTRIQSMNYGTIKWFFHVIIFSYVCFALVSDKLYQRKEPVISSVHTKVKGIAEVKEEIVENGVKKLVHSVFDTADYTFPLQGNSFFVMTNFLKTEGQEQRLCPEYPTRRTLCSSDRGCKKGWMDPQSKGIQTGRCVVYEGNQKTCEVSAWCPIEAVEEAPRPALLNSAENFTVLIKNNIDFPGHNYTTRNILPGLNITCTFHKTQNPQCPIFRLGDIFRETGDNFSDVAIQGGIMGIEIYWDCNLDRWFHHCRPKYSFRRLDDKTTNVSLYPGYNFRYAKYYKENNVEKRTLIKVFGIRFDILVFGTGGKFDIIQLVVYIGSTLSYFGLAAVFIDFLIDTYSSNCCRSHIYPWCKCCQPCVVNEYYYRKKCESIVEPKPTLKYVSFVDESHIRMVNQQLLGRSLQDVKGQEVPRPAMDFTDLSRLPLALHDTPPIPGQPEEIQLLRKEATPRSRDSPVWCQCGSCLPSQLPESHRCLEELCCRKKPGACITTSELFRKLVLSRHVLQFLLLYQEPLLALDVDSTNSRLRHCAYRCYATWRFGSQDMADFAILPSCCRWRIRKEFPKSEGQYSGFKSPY
Chain of rat P2X7 (Q64663 whole entry): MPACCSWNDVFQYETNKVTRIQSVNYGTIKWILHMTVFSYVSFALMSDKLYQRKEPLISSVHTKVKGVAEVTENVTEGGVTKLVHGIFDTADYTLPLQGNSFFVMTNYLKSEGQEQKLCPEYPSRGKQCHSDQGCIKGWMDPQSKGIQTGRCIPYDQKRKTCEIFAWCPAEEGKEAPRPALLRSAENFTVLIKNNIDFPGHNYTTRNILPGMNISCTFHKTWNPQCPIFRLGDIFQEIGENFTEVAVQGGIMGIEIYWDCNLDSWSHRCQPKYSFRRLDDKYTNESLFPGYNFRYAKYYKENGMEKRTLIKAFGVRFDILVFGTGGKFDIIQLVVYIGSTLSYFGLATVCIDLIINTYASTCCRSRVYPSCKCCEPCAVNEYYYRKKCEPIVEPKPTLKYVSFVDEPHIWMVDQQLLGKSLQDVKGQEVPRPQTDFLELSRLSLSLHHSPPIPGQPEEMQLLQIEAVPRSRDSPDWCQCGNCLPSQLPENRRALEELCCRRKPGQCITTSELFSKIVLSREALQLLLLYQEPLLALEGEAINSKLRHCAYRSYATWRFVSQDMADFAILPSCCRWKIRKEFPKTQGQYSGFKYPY

| Compound | pIC50 (rat P2X7) | remaining activity at 10 µM (P2X7) |
| --- | --- | --- |
| Cc1nc2c(c(-c3ccn[nH]3)n1)C[C@@H](C)N(C(=O)c1cccc(Cl)c1Cl)C2 (single isomer, unassigned) [Example 68, (R*)-(2,3-dichlorophenyl)(2,6-dimethyl-4-(1H-pyrazol-5-yl)-5,6-dihydropyrido[3,4-d]pyrimidin-7(8H)-yl)methanone] | 8.06 | – |
| Cc1nc2c(c(-c3ccn[nH]3)n1)C[C@H](C)N(C(=O)c1cccc(Cl)c1Cl)C2 (single isomer, unassigned) [Example 69, (S*)-(2,3-dichlorophenyl)(2,6-dimethyl-4-(1H-pyrazol-5-yl)-5,6-dihydropyrido[3,4-d]pyrimidin-7(8H)-yl)methanone] | 6.03 | – |
| Cc1nc2c(c(-c3ccn[nH]3)n1)C[C@@H](C)N(C(=O)c1ccc(F)cc1Cl)C2 (single isomer, unassigned) [Example 91, (R*)-(2-chloro-4-fluorophenyl)(2,6-dimethyl-4-(1H-pyrazol-5-yl)-5,6-dihydropyrido[3,4-d]pyrimidin-7(8H)-yl)methanone] | 6.88 | – |
| Cc1nc2c(c(-c3ccn[nH]3)n1)C[C@H](C)N(C(=O)c1ccc(F)cc1Cl)C2 (single isomer, unassigned) [Example 92, (S*)-(2-chloro-4-fluorophenyl)(2,6-dimethyl-4-(1H-pyrazol-5-yl)-5,6-dihydropyrido[3,4-d]pyrimidin-7(8H)-yl)methanone] | 5.23 | – |
| C[C@@H]1c2ncnc(-c3ccn[nH]3)c2CCN1C(=O)c1cccc(C(F)(F)F)c1Cl (single isomer, unassigned) [Example 113, (R*)-(2-chloro-3-(trifluoromethyl)phenyl)(8-methyl-4-(1H-pyrazol-5-yl)-5,6-dihydropyrido[3,4-d]pyrimidin-7(8H)-yl)methanone] | 8.04 | – |
| C[C@H]1c2ncnc(-c3ccn[nH]3)c2CCN1C(=O)c1cccc(C(F)(F)F)c1Cl (single isomer, unassigned) [Example 114, (S*)-(2-chloro-3-(trifluoromethyl)phenyl)(8-methyl-4-(1H-pyrazol-5-yl)-5,6-dihydropyrido[3,4-d]pyrimidin-7(8H)-yl)methanone] | 6.78 | – |
| C[C@@H]1c2ncnc(-c3ccn[nH]3)c2CCN1C(=O)c1ccc(F)c(Cl)c1Cl (single isomer, unassigned) [Example 119, (R*)-(2,3-dichloro-4-fluorophenyl)(8-methyl-4-(1H-pyrazol-5-yl)-5,6-dihydropyrido[3,4-d]pyrimidin-7(8H)-yl)methanone] | 7.55 | – |
| C[C@H]1c2ncnc(-c3ccn[nH]3)c2CCN1C(=O)c1ccc(F)c(Cl)c1Cl (single isomer, unassigned) [Example 120, (S*)-(2,3-dichloro-4-fluorophenyl)(8-methyl-4-(1H-pyrazol-5-yl)-5,6-dihydropyrido[3,4-d]pyrimidin-7(8H)-yl)methanone] | 5.82 | – |
| Cc1nc2c(c(-c3ccn(CCF)n3)n1)C[C@H](C)N(C(=O)c1cccc(C(F)(F)F)c1Cl)C2 (single isomer, unassigned) [Example 125, (S*)-(2-chloro-3-(trifluoromethyl)phenyl)(4-(1-(2-fluoroethyl)-1H-pyrazol-3-yl)-2,6-dimethyl-5,6-dihydropyrido[3,4-d]pyrimidin-7(8H)-yl)methanone] | – | 64.7% |
| Cc1cccc(C(=O)N2CCc3c(ncnc3-c3cnn(C)c3)C2)c1Cl [Example 6, 7-[(2-Chloro-3-methylphenyl)carbonyl]-4-(1-methyl-1H-pyrazol-4-yl)-5,6,7,8-tetrahydropyrido[3,4-d]pyrimidine] | – | 49.5% |
| Cc1cccc(C(=O)N2CCc3c(ncnc3-c3ccn[nH]3)C2)c1Cl [Example 8, 7-[(2-Chloro-3-methylphenyl)carbonyl]-4-(1H-pyrazol-5-yl)-5,6,7,8-tetrahydropyrido[3,4-d]pyrimidine] | < 5.00 | – |
| Cc1cccc(C(=O)N2CCc3c(ncnc3-c3ccn[nH]3)C2)c1C [Example 9, 7-[(2,3-Dimethylphenyl)carbonyl]-4-(1H-pyrazol-5-yl)-5,6,7,8-tetrahydropyrido[3,4-d]pyrimidine] | – | 9.8% |
| O=C(c1cccc(C(F)(F)F)c1Cl)N1CCc2c(ncnc2-c2ccnn2C2CCCCO2)C1 (stereo not shown) [Example 17, 7-{[2-Chloro-3-(trifluoromethyl)phenyl]carbonyl}-4-[1-(tetrahydro-2H-pyran-2-yl)-1H-pyrazol-5-yl]-5,6,7,8-tetrahydropyrido[3,4-d]pyrimidine] | – | 9.9% |
| Cc1nc2c(c(-c3c(C)noc3C)n1)CCN(C(=O)c1cccc(C(F)(F)F)c1Cl)C2 [Example 46, 7-{[2-Chloro-3-(trifluoromethyl)phenyl]carbonyl}-4-(3,5-dimethylisoxazol-4-yl)-2-methyl-5,6,7,8-tetrahydropyrido[3,4-d]pyrimidine] | – | 100% |
| Cc1nc2c(c(-n3nccn3)n1)CCN(C(=O)c1cccc(C(F)(F)F)c1Cl)C2 [Example 47, 7-{[2-Chloro-3-(trifluoromethyl)phenyl]carbonyl}-2-methyl-4-(2H-1,2,3-triazol-2-yl)-5,6,7,8-tetrahydropyrido[3,4-d]pyrimidine] | 8.10 | – |

The remaining lines, values ahead:

| pIC50 (rat P2X7) | remaining activity at 10 µM (P2X7) | Compound |
| --- | --- | --- |
| – | 13.4% | Cc1cccc(C(=O)N2CCc3c(ncnc3-c3ccccn3)C2)c1Cl [Example 13, 7-[(2-Chloro-3-methylphenyl)carbonyl]-4-pyridin-2-yl-5,6,7,8-tetrahydropyrido[3,4-d]pyrimidine] |
| – | 10.8% | CN(C)c1nc2c(c(-c3ccccc3)n1)CCN(C(=O)c1cccc(Cl)c1Cl)C2 [Example 25, 7-[(2,3-Dichlorophenyl)carbonyl]-N,N-dimethyl-4-phenyl-5,6,7,8-tetrahydropyrido[3,4-d]pyrimidin-2-amine] |
| – | 16.1% | CN(C)c1nc2c(c(-c3ccccc3)n1)CCN(C(=O)c1cccc(C(F)(F)F)c1Cl)C2 [Example 26, 7-{[2-Chloro-3-(trifluoromethyl)phenyl]carbonyl}-N,N-dimethyl-4-phenyl-5,6,7,8-tetrahydropyrido[3,4-d]pyrimidin-2-amine] |
| – | 21% | Cc1nc2c(c(-c3ccccn3)n1)CCN(C(=O)c1cccc(C(F)(F)F)c1Cl)C2 [Example 30, 7-{[2-Chloro-3-(trifluoromethyl)phenyl]carbonyl}-2-methyl-4-pyridin-2-yl-5,6,7,8-tetrahydropyrido[3,4-d]pyrimidine] |
| – | 9.2% | Cc1nc2c(c(-c3ccccn3)n1)CCN(C(=O)c1cccc(Cl)c1Cl)C2 [Example 31, 7-[(2,3-Dichlorophenyl)carbonyl]-2-methyl-4-pyridin-2-yl-5,6,7,8-tetrahydropyrido[3,4-d]pyrimidine] |
| – | 12.9% | Cc1nc2c(c(-c3[nH]ncc3C(F)(F)F)n1)CCN(C(=O)c1cccc(Cl)c1Cl)C2 [Example 40, 7-[(2,3-Dichlorophenyl)carbonyl]-2-methyl-4-[4-(trifluoromethyl)-1H-pyrazol-5-yl]-5,6,7,8-tetrahydropyrido[3,4-d]pyrimidine] |
| – | 7.1% | Cc1nc2c(c(-c3ccc[nH]3)n1)CCN(C(=O)c1cccc(C(F)(F)F)c1Cl)C2 [Example 45, 7-{[2-Chloro-3-(trifluoromethyl)phenyl]carbonyl}-2-methyl-4-(1H-pyrrol-2-yl)-5,6,7,8-tetrahydropyrido[3,4-d]pyrimidine] |
